Measured values as given in patent publication US9675714B1, “Graphene based theranostics for tumor targeted drug/gene delivery and imaging” (University of South Florida, priority 2013, dated 2017).

Tested on: A549 lung cancer cells
Assay: Cellular uptake and intracellular drug release by confocal laser scanning microscopy
Format: cell-based
Conditions: 20 h incubation
Procedure: FIGS. 15A-15F show confocal microscopic images of A549cells after 20 h incubation with doxorubicin (15A-15C) or doxorubicin-CMG nanoparticles (15D-15F). […] Nuclei were stained with DAPI as a control (15A and […]). DAPI and doxorubicin images were merged for comparison (15C-15F).
To test the drug delivery capacity of CMG NPs, DOX was loaded into CMG nanoparticles by physical adsorption. The UV-Vis spectrum of DOX-CMG nanoparticles was used to confirm the loading of DOX onto CMG nanoparticles. […] DOX loading was confirmed by the presence of the characteristic absorbance peak of DOX-CMG at 485 nm (FIG. 12,b), which corresponded to the peak of free DOX (FIG. 12,c). The hydrodynamic diameter of DOX-loaded CMG nanoparticles was about 91 nm and was similar to the CMGs alone (FIGS. 5A-5F). The loading capacity of CMG nanoparticles for DOX was investigated by mixing a fixed concentration of CMG (2 mg/mL) with various initial DOX concentrations as shown in FIG. 13. […] The drug-release kinetics of DOX-CMG nanoparticles was determined at pH about 5.1 and about 7.4 (FIG. 14). […] To determine the effectiveness of the DOX-CMG nanoparticles in killing A549 cancer cells, cells were treated with DOX-CMG nanoparticles with increasing concentrations of DOX, or free DOX, for about 72 h and analyzed using the Presto Blue cell viability assay.

With COc1cccc2c1C(=O)c1c(O)c3c(c(O)c1C2=O)C[C@@](O)(C(=O)CO)C[C@@H]3O[C@H]1C[C@H](N)[C@H](O)[C@H](C)O1 [DOX, doxorubicin] the “subcellular localization of DOX” value was “concentrated in the nuclei”.
